{"source": "patent US20140283583A1", "about": "“SYSTEM FOR PIPELINE DRYING AND FREEZING POINT SUPPRESSION” (WEATHERFORD/LAMB, INC., priority 2007, published 2014)", "key": {"[1]": {"tested_on": "Mysidopsis bahia", "conditions": "800 mg/L"}, "[2]": {"tested_on": "Menidia beryllina", "conditions": "800 mg/L"}, "[3]": {"conditions": "FIG. 1, compared with methanol and ethylene glycol"}, "[4]": {"conditions": "50% w/w solution in water"}}, "data": [{"smiles": "O=C[O-].[K+]", "note": "[potassium formate]", "values": [{"measurement": "larval survival and growth toxicity testing (normality tests)", "setting": "[1]", "result": "passed the normality tests"}, {"measurement": "larval survival and growth toxicity testing (normality tests)", "setting": "[2]", "result": "passed the normality tests"}, {"measurement": "methane hydrate suppression", "setting": "[3]", "result": "between ethylene glycol and methanol"}, {"measurement": "freezing point", "setting": "[4]", "result": "around −60 °C"}]}]}
